The source of these data is patent publication US9393221B2, “Methods and compounds for reducing intracellular lipid storage” (THE GENERAL HOSPITAL CORPORATION, priority 2011, dated 2016).

Counter-ions that a name gives are not always drawn.

One experiment concerns ATGL-KO iPSCs. As to the kind of experiment: High throughput iPSC chemical screening, Oil Red O (ORO) lipid accumulation. For Z-score: test concentration or dose not given here.
Conditions: not given
Format: cell-based, mouse.
`CN[C@H](CC(C)C)C(=O)N[C@H]1C(=O)N[C@@H](CC(N)=O)C(=O)N[C@H]2C(=O)N[C@H]3C(=O)N[C@H](C(=O)N[C@H](C(=O)O)c4cc(O)cc(O)c4-c4cc3ccc4O)[C@H](O)c3ccc(c(Cl)c3)Oc3cc2cc(c3O[C@@H]2O[C@H](CO)[C@@H](O)[C@H](O)[C@H]2O[C@H]2C[C@](C)(N)[C@H](O)[C@H](C)O2)Oc2ccc(cc2Cl)[C@H]1O` [Vancomycin hydrochloride] registered a Z-score of −0.5906. Cytisine (−) returned a Z-score of 1.049.

Still in this experiment, the particulars now being: glycolytic switch compounds.
In the case of `CN(C)CCCN1c2ccccc2Sc2ccc(C(F)(F)F)cc21` [Triflupromazine hydrochloride], the “Rank in normalized ORO score from screen” value worked out at 644.

Staying with this experiment, now noted: normalized ORO level vs DMSO-treated cells; compound present during 7 days differentiation, 96-well; negative = decrease in lipid accumulation.
Take `Cc1cccc(Nc2ccncc2S(=O)(=O)NC(=O)NC(C)C)c1` [Torsemide]: the Z-score came out at 0.1541. The same measure, in the same setting: in the case of `CCCCNc1c(C(=O)OCC)c(C)nc2c1cnn2CC` [Tracazolate hydrochloride] it was −1.6368; in that of `NC[C@H]1CC[C@H](C(=O)O)CC1` [Tranexamic acid], 0.05824. Still for that read-out and setting: the result for `N[C@@H]1C[C@H]1c1ccccc1` [Tranylcypromine hydrochloride] reads −0.2314; that for `O=c1n(CCCN2CCN(c3cccc(Cl)c3)CC2)nc2ccccn12` [Trazodone hydrochloride], 0.03974.

`C(#CCN1CCCC1)CN1CCCC1.Cl.Cl` [Tremorine dihydrochloride]: the Z-score is 0.3583. The same measure, in the same setting: the result for `C[C@]12C=CC(=O)C=C1CC[C@H]1[C@@H]3C[C@@H](O)[C@](O)(C(=O)CO)[C@@]3(C)C[C@H](O)[C@@]12F` [Triamcinolone] reads −1.1722; that for `Nc1nc(N)c2nc(-c3ccccc3)c(N)nc2n1` [Triamterene], −1.3039; that for `CCOC1O[C@H]([C@@H](COCc2ccccc2)OCc2ccccc2)[C@H](OCc2ccccc2)[C@H]1O` (some centres unmarked) [Tribenoside], −0.7171.

As to `COP(=O)(OC)C(O)C(Cl)(Cl)Cl` (centres unmarked) [Trichlorfon], the Z-score is listed as 0.2655. The compound `NS(=O)(=O)c1cc2c(cc1Cl)NC(C(Cl)Cl)NS2(=O)=O` (centres unmarked) [Trichlormethiazide] registered a Z-score of −1.2081. `CC[N+](CC)(CC)CCC(O)(c1ccccc1)C1CCCCC1.[Cl-]` (centres unmarked) [Tridihexethyl chloride]: the Z-score came out at 0.01977.

Compound `CN1CCN(CCCN2c3ccccc3Sc3ccc(C(F)(F)F)cc32)CC1` [Trifluoperazine dihydrochloride] showed a Z-score of 0.5386. `CN(C)CCCN1c2ccccc2Sc2ccc(C(F)(F)F)cc21` [Triflupromazine hydrochloride] gave a Z-score of 0.04449.

`O=c1[nH]c(=O)n([C@H]2C[C@H](O)[C@@H](CO)O2)cc1C(F)(F)F` [Trifluridine] gave a Z-score of 21.7513. `CC(=O)Oc1cc(C(F)(F)F)ccc1C(=O)O` [Triflusal] registered a Z-score of −1.2041. On the same count and under the same terms, the result for `C[n+]1cccc(C(=O)[O-])c1` [Trigonelline] reads −1.518. For the compound `Cl.OC(CCN1CCCCC1)(c1ccccc1)C1CCCCC1` (centres unmarked) [Trihexyphenidyl-D,L Hydrochloride], the Z-score worked out at 1.258. Same read-out and setting: in the case of `COc1ccc(CN2CCNCC2)c(OC)c1OC` [Trimetazidine dihydrochloride] it was 0.9654; in that of `CN1C(=O)OC(C)(C)C1=O` [Trimethadione], −0.8958.

Turning to `COc1cc(C(=O)NCc2ccc(OCCN(C)C)cc2)cc(OC)c1OC` [Trimethobenzamide hydrochloride], the Z-score stood at 1.06. The compound `COc1cc(Cc2cnc(N)nc2N)cc(OC)c1OC` [Trimethoprim] displayed a Z-score of −0.9568. The same measure, in the same setting: in the case of `COc1cc2c(c(OC)c1OC)-c1ccc(O)c(=O)cc1C(N)CC2` (centres unmarked) [Trimethylcolchicinic acid] it was 0.4127; in that of `Cc1cc2cc3c(C)cc(=O)oc3c(C)c2o1` [Trioxsalen], 1.359; in that of `Cc1ccc(/C(=C\CN2CCCC2)c2ccccn2)cc1` [Triprolidine hydrochloride], −1.0644. The same measure, in the same setting: in the case of `CO[C@H]1C[C@H](O[C@H]2[C@H](C)[C@@H](O[C@@H]3O[C@H](C)C[C@H](N(C)C)[C@H]3OC(C)=O)[C@@H](C)C[C@@]3(CO3)C(=O)[C@H](C)[C@@H](OC(C)=O)[C@@H](C)[C@@H](C)OC(=O)[C@@H]2C)O[C@@H](C)[C@@H]1OC(C)=O` [Troleandomycin] it was −0.5429; in that of `Cc1c(C)c2c(c(C)c1O)CCC(C)(C(=O)O)O2` (centres unmarked) [Trolox], −1.1986; in that of `CN1[C@@H]2CC[C@H]1C[C@@H](O)C2` [Tropine], −0.2952. On the same count and under the same terms, the result for `COc1cc2c3cc1Oc1cc(ccc1O)C[C@@H]1c4c(cc(OC)c(O)c4Oc4ccc(cc4)C[C@@H]3N(C)CC2)CC[N+]1(C)C.Cl.O.O.O.O.O.[Cl-]` [Tubocurarine chloride pentahydrate (+)] reads 0.8961; that for `CO[C@@H]1C=C2CCN(C)[C@@H]2C2c3cc4c(cc3C(=O)OC21)OCO4.O=[N+]([O-])O` (some centres unmarked) [Ungerine nitrate], −1.1174.

In turn, `COc1ccccc1N1CCN(CCCNc2cc(=O)n(C)c(=O)n2C)CC1` [Urapidil hydrochloride] had a Z-score of −1.2828. The same measure, in the same setting: the result for `C[C@H](CCC(=O)O)[C@H]1CC[C@H]2[C@@H]3[C@@H](O)C[C@@H]4C[C@H](O)CC[C@]4(C)[C@H]3CC[C@]12C` [Urosiol] reads 0.02187; that for `C[C@H]1[C@H](C)CC[C@]2(C(=O)O)CC[C@]3(C)C(=CC[C@@H]4[C@@]5(C)CC[C@H](O)C(C)(C)[C@@H]5CC[C@]43C)[C@H]12` [Ursolic acid], −0.1541. Same read-out and setting: the result for `COc1ccc(CCN(C)CCCC(C#N)(c2ccc(OC)c(OC)c2)C(C)C)cc1OC.Cl` (centres unmarked) [Verapamyl hydrochloride] reads 0.4436; that for `Nc1ncnc2c1ncn2[C@@H]1O[C@H](CO)[C@@H](O)[C@@H]1O` [Vidarabine], −0.443; that for `C=CC(N)CCC(=O)O` (centres unmarked) [Vigabatrin], −0.7771. The compound `CC[C@]12CCCN3CCc4c(n(c5ccccc45)[C@@](O)(C(=O)OC)C1)[C@@H]32` [Vincamine] had a Z-score of −0.4826.

The compound `O=c1cc(-c2ccc(O)cc2)oc2c([C@@H]3O[C@H](CO)[C@@H](O)[C@H](O)[C@H]3O)c(O)cc(O)c12` [Vitexin] had a Z-score of −0.0089. In turn, `O=C(NCCNCC(O)COc1ccc(O)cc1)N1CCOCC1` (centres unmarked) [Xamoterol hemifumarate] showed a Z-score of −0.1402. On the same count and under the same terms, in the case of `Cc1cccc(C)c1N=C1NCCCS1` [Xylazine] it was −1.0585. The same measure, in the same setting: in the case of `Cc1cc(C(C)(C)C)cc(C)c1CC1=NCCN1` [Xylometazoline hydrochloride] it was 0.7686; in that of `COC(=O)[C@@H]1[C@H]2C[C@H]3c4[nH]c5ccccc5c4CCN3C[C@@H]2CC[C@@H]1O` [Yohimbine hydrochloride], −1.0356; in that of `O.O=C(O)[C@@H]1[C@H]2C[C@H]3c4[nH]c5ccccc5c4CCN3C[C@@H]2CC[C@@H]1O` [Yohimbinic acid monohydrate], −0.0239. The same measure, in the same setting: the result for `Nc1ccn([C@H]2CC[C@@H](CO)O2)c(=O)n1` [Zalcitabine] reads 2.323; that for `CCCOc1ccccc1-c1nc2nn[nH]c2c(=O)[nH]1` [Zaprinast], −0.4842. `COc1cc(-c2ccc(=O)[nH]n2)ccc1OC(F)F` [Zardaverine] yielded a Z-score of −0.6963.

Turning to `Cc1cn([C@H]2C[C@H](N=[N+]=[N-])[C@@H](CO)O2)c(=O)[nH]c1=O` [Zidovudine, AZT], the Z-score is reported as −0.4063. `CN(C)C/C=C(/c1ccc(Br)cc1)c1cccnc1` [Zimelidine dihydrochloride monohydrate] registered a Z-score of −0.7577. Same read-out and setting: the result for `Cc1cc(CC(=O)O)n(C)c1C(=O)c1ccc(Cl)cc1` [Zomepirac sodium salt] reads 0.8794. Still for that read-out and setting: the result for `OCCN1CCN(CC/C=C2/c3ccccc3Sc3ccc(Cl)cc32)CC1` [Zuclopenthixol hydrochloride] reads −1.8038; that for `CC1=C2[C@H]3OC(=O)[C@@H](C)[C@@H]3CC[C@@]2(C)C=CC1=O` [alpha-Santonin], −0.8908. For the compound `CC[N+]1(C)[C@@H]2CC[C@H]1CC(OC(=O)[C@@H]1CC[C@@](C(=O)OC3C[C@H]4CC[C@@H](C3)[N+]4(C)CC)(c3ccccc3)c3ccccc31)C2.[Cl-].[Cl-]` (stereo partly drawn) [beta-Belladonnine dichloroethylate], the Z-score was −0.7978. The same measure, in the same setting: the result for (S)-(−)-Atenolol reads 0.7787; that for (S)-propranolol hydrochloride, 0.368.

In turn, (−)-MK 801 hydrogen maleate came in with a Z-score of −0.2074.

(−)-Quinpirole hydrochloride: the Z-score stood at 1.311. The same measure, in the same setting: in the case of Alverine citrate salt it was −0.9516.

For the compound Antimycin A, the Z-score stood at 30.555. The same measure, in the same setting: the result for Avermectin B1 reads −0.9704; that for Beta-Escin, −1.7261; that for Bromocryptine mesylate, −0.775. On the same count and under the same terms, the result for Butirosin disulfate salt reads 0.2121; that for Carbinoxamine maleate salt, 0.218; that for Clofilium tosylate, 13.6063. On the same count and under the same terms, the result for Colistin sulfate reads −0.5041; that for Cotinine (−), 0.644; that for Cyanocobalamin, −1.3236. Take Deptropine citrate: the Z-score is listed as −0.0889. Still for that read-out and setting: the result for Dihydroergotamine tartrate reads −0.7032; that for Dihydroergotoxine mesylate, 1.217.

In the case of Eburnamonine (−), the Z-score is listed as −1.0688. On the same count and under the same terms, in the case of Foliosidine it was −0.7349; in that of Guanadrel sulfate, −0.4661; in that of Helveticoside, −0.1112. The same measure, in the same setting: the result for Ifenprodil tartrate reads 0.8399.

In the case of Iobenguane sulfate, the Z-score is reported as −0.2715. The same measure, in the same setting: the result for Iproniazide phosphate reads −0.4106.
